According to patent publication US20210292306A1, “NOVEL INDOLE DERIVATIVE AND ANTI-CANCER CONPOSITION CONTAINING SAME” (KOREA RESEARCH INSTITUTE OF BIOSCIENCE AND BIOTECHNOLOGY, priority 2016, published 2021):
Converted amounts (≈) assume the structure as drawn.

Legend:
[1] = Solubility in phosphate buffer; format: physicochemical; details: aqueous buffer, thermodynamic from solid
Protocol: In order to examine the solubility of the indole derivative of the present invention, the solubility of the compound of Example 1 (WCI-1031) was examined at pH 6.5 or pH 7.4.
Specifically, a solid sample (˜1 mg) of the test substance was placed on Whatman Syringeless filter (PVDF membrane, 0.45 μm pore size) and mixed with 0.5 ml of a phosphate buffer (pH 6.5 or 7.4). The mixture was sonicated for 15 minutes and vortexed for 1 hour at room temperature. The equilibrated mixture was filtered and the filtrate was analyzed with a multi-wavelength UV plate reader (FIGS. 8 and 9).

HeLa = test: Anti-proliferative activity in other cancer cell lines (MTT assay); format: cell-based; details: Homo sapiens, 96 h, HeLa (uterine cervix), 4 days, mean of three assays
Protocol: (§1) HeLa cells (ATCC, USA), which are a human cervical cancer cell line, were dispensed into a 96-well plate at 2×10^3 cells/well, and the cells were treated with DMSO or the indole derivatives of the present invention, and then allowed to grow for 4 days. And then, MTT (3-(4,5-Dimethylthiazol-2-yl)-2,5-diphenyltetrazolium bromide) reagent was added to the wells at 10 μl/well. After 2 hours, the absorbance was measured at “OD 450” and statistical values were obtained using the plizm6 program. The data represent mean values of the results of two repeated assays (Table 1).
(§2) Specifically, various cancer cell lines were cultured on a microtiter plate (1-3×10^3 cells/well), and the cells were treated with the indole derivative of the present invention and cultured for 4 days. Cytotoxicity was examined by the MTT assay by the same method as in Experimental Example 1-1, and the IC50 was obtained by the log-dose response curve. The data represent mean values of the results of three repeated assays (Table 2).

NCIH-125 = test: as above; format: cell-based; details: Homo sapiens, NCI-H125, 96 h, NCIH-125 (lung), 4 days, mean of three assays
Protocol: as §1, §2

SNU 484 = test: as above; format: cell-based; details: 96 h, SNU 484 (stomach), 4 days, mean of three assays
Protocol: as §1, §2

K562 = test: as above; format: cell-based; details: Homo sapiens, 96 h, K562 (bone marrow), 4 days, mean of three assays
Protocol: as §1, §2

PC3 = test: as above; format: cell-based; details: Homo sapiens, PC-3, 96 h, PC3 (prostate), 4 days, mean of three assays
Protocol: as §1, §2

HepG2 = test: as above; format: cell-based; details: Homo sapiens, 96 h, HepG2 (liver), 4 days, mean of three assays
Protocol: as §1, §2

Hep3B = test: as above; format: cell-based; details: Homo sapiens, 96 h, Hep3B (liver), 4 days, mean of three assays
Protocol: as §1, §2

NCIH-1299 = test: as above; format: cell-based; details: Homo sapiens, NCI-H1299, 96 h, NCIH-1299 (lung), 4 days, mean of three assays
Protocol: as §1, §2

Wehi 3 = test: as above; format: cell-based; details: 96 h, Wehi 3 (bone marrow), 4 days, mean of three assays
Protocol: as §1, §2

MCF7 = test: as above; format: cell-based; details: Homo sapiens, 96 h, MCF7 (breast), 4 days, mean of three assays
Protocol: as §1, §2

U373MG = test: as above; format: cell-based; details: Homo sapiens, U373 MG, 96 h, U373MG (brain), 4 days, mean of three assays
Protocol: as §1, §2

A 549 = test: as above; format: cell-based; details: Homo sapiens, A549, 96 h, A 549 (lung), 4 days, mean of three assays
Protocol: as §1, §2

A172 = test: as above; format: cell-based; details: Homo sapiens, A 172, 96 h, A172 (brain), 4 days, mean of three assays
Protocol: as §1, §2

NCIH-460 = test: as above; format: cell-based; details: Homo sapiens, NCI-H460, 96 h, NCIH-460 (lung), 4 days, mean of three assays
Protocol: as §1, §2

A431 = test: as above; format: cell-based; details: Homo sapiens, A-431, 96 h, A431 (skin), 4 days, mean of three assays
Protocol: as §1, §2

[2] = Stability in blood plasma after intravenous injection; format: in vivo; details: plasma concentration over time (FIG. 7)
Protocol: In order to examine the stability of the indole derivative of the present invention in vivo, the compound of Example 1 (WCI-1031) was injected intravenously and the plasma concentration was observed over time (FIG. 7).

HeLa cells = test: Anti-proliferative activity in HeLa cell line (MTT assay); format: cell-based; details: Homo sapiens, 96 h, 4 days, mean of two repeated assays
Protocol: as §1

[3] = test system: human-derived skin cancer cell line (A431); test: Anti-cancer effect in human-derived skin cancer cell (A431) implantation nude mouse model; format: in vivo, BALB/C female nude mouse; details: for tumor growth inhibition: days 0-23, last day (day 23), vs solvent control; for tumor weight reduction: excised A431 tumors weighed
Protocol: The human cancer cell line A431 which was kept frozen in liquid nitrogen was thawed and cell culture was conducted. Cells were cultured in a CO2 incubator (Forma, USA) at 37° C. and 5% CO2 for an appropriate period of time. On the last day of culture, all cancer cells were collected and counted and the cell concentration was adjusted to 1×10^7 cells/ml using serum free media. The culture solution thus prepared was injected subcutaneously in the axillary region between the scapula and chest wall in an amount of 0.3 ml per BALB/C female nude mouse (5 weeks old, Nara Biotech) (3×10^6 cells/mouse). […] To examine the toxicity levels of the repeated intraperitoneal administration of WCI-1031 to A431 cancer cell implantation nude mice, general symptoms and weight changes of the animals were observed during the administration period. […] On day 23 after the start of the drug administration, blood was taken from the mice through ophthalmic veins 2 hours after the last administration, and the mice were sacrificed using CO2 gas. Then the mice were photographed and the tumors was isolated and weighed in a chemical balance. After taking photographs, each tumor was divided in half, and the resultant tumors were fixed to liquid nitrogen and formalin, respectively.

[4] = Maximum absorbable dose in human (Table 6); details: for MAD (maximum absorbable dose in human): SIWV 250 ml, SITT 270

- solubility at 1 h ([1]; phosphate buffer pH 6.5, room temperature): 0.9 µg/mL (≈ 2.05 µM)
- solubility at 1 h ([1]; phosphate buffer pH 7.4, room temperature): 0.4 µg/mL (≈ 0.91 µM)
- IC50 (HeLa): 297 nM
- IC50 (NCIH-125): 333 nM
- IC50 (SNU 484): 493 nM
- IC50 (K562): 549 nM
- IC50 (PC3): 549 nM
- IC50 (HepG2): 2400 nM
- IC50 (Hep3B): 503 nM
- IC50 (NCIH-1299): 376 nM
- IC50 (Wehi 3): 290 nM
- IC50 (MCF7): 1320 nM
- IC50 (U373MG): 262 nM
- IC50 (A 549): 495 nM
- IC50 (A172): 1120 nM
- IC50 (NCIH-460): 671 nM
- IC50 (A431): 186 nM
- stability in the blood plasma [2]: excellent
- IC50 (HeLa cells): 653 nM
- Ka (intestinal absorption rate constant) ([4]; pH 6.5): 0.03 min⁻¹
- MAD (maximum absorbable dose in human) ([4]; pH 6.5): 1.8 mg
- Ka (intestinal absorption rate constant) ([4]; pH 7.4): 0.03 min⁻¹
- MAD (maximum absorbable dose in human) ([4]; pH 7.4): 0.8 mg
Structure (SMILES): COC(=O)Cn1c(C)c(/C=N/NC(=O)c2cc3c(ccc4ccccc43)o2)c2ccccc21 [WCI-1031, methyl (E)-2-(2-methyl-3-((2-(naphtho[2,1-b]furan-2-carbonyl) hydrazono)methyl)-1H-indole-1-yl)acetate]
- tumor growth inhibition ([3]; 10 mg/kg): 9.3%
- tumor weight reduction ([3]; 10 mg/kg): 10.7%
- tumor growth inhibition ([3]; 20 mg/kg, p<0.001): 37.2%
- tumor weight reduction ([3]; 20 mg/kg, p<0.001): 38.0%
